US20170333591A9, “ABSORBENT ARTICLE COMPRISING MALODOR REDUCTION COMPOSITIONS” (The Procter & Gamble Company, priority 2014, published 2017)

Test: Log of liquid dish neat product liquid-air partition coefficient
Assay type: physicochemical
Details: for Log of liquid dish neat product liquid-air partition coefficient (Comment Code K/L): code letter within the Comment Code cell

SMILES	Log of liquid dish neat product liquid-air partition coefficient (Comment Code K/L)	Comment Code: Log of liquid dish neat product liquid-air partition coefficient
CCCCCCCCCCOC(=O)CC [Material 471]	K (Log of liquid dish neat product liquid-air partition coefficient greater than or equal to 7)	
CCCCCCCCCC(OCC)OCC [Material 473]	K (Log of liquid dish neat product liquid-air partition coefficient greater than or equal to 7)	
OC1CCC2CCCCC2C1 (stereo not shown) [Material 474]	K (Log of liquid dish neat product liquid-air partition coefficient greater than or equal to 7)	
CC=CC(=O)OC(C)C1CCCCC1 (stereo not shown) [Material 475]	K (Log of liquid dish neat product liquid-air partition coefficient greater than or equal to 7)	
CC(C=O)Cc1ccc(C(C)C)cc1 (stereo not shown) [Material 478]	K (Log of liquid dish neat product liquid-air partition coefficient greater than or equal to 7)	
O=C1CCCCCCCCCCCCCC1 [Material 480]	K (Log of liquid dish neat product liquid-air partition coefficient greater than or equal to 7)	
CCCC(=O)OC1CC2CC1C1CC=CC21 (stereo not shown) [Material 484]	K (Log of liquid dish neat product liquid-air partition coefficient greater than or equal to 7)	K (Log of liquid dish neat product liquid-air partition coefficient greater than or equal to 7)
CC1(C)CCCC2=C1CC(C=O)CC2 (stereo not shown) [Material 486]	K (Log of liquid dish neat product liquid-air partition coefficient greater than or equal to 7)	
CC(C)C(=O)OC1CC2CC1C1C=CCC21 (stereo not shown) [Material 487]	K (Log of liquid dish neat product liquid-air partition coefficient greater than or equal to 7)	K (Log of liquid dish neat product liquid-air partition coefficient greater than or equal to 7)
C=CC1(C)Cc2occ(C)c2CC1C(=C)C (stereo not shown) [Material 488]	K (Log of liquid dish neat product liquid-air partition coefficient greater than or equal to 7)	K (Log of liquid dish neat product liquid-air partition coefficient greater than or equal to 7)
CC(C)c1ccc(CO)cc1 [Material 491]	K (Log of liquid dish neat product liquid-air partition coefficient greater than or equal to 7)	
COc1cc(C)ccc1O [Material 492]		K (Log of liquid dish neat product liquid-air partition coefficient greater than or equal to 7)
c1ccc2occc2c1 [Material 493]	K (Log of liquid dish neat product liquid-air partition coefficient greater than or equal to 7)	
CC(C)(O)CCC1CCCCC1 [Material 496]		K (Log of liquid dish neat product liquid-air partition coefficient greater than or equal to 7)
c1ccc(CCCc2ccccn2)cc1 [Material 497]	K (Log of liquid dish neat product liquid-air partition coefficient greater than or equal to 7)	
CCCCCCCCCCCC#N [Material 498]	K (Log of liquid dish neat product liquid-air partition coefficient greater than or equal to 7)	
C=CC(C)(C#N)Cc1ccccc1 (stereo not shown) [Material 504]		K (Log of liquid dish neat product liquid-air partition coefficient greater than or equal to 7)
CC(=CC#N)CCc1ccccc1 [Material 505]	K (Log of liquid dish neat product liquid-air partition coefficient greater than or equal to 7)	
CC(C)=CCCC(C)=CC1OCC(C)O1 (stereo not shown) [Material 519]	K (Log of liquid dish neat product liquid-air partition coefficient greater than or equal to 7)	

SMILES	Log of liquid dish neat product liquid-air partition coefficient (Comment Code K/L)	Comment Code: Log of liquid dish neat product liquid-air partition coefficient
COC(C=C(C)CCC=C(C)C)OC [Material 520]	K (Log of liquid dish neat product liquid-air partition coefficient greater than or equal to 7)	
CCOC(C=C(C)CCC=C(C)C)OCC [Material 521]	K (Log of liquid dish neat product liquid-air partition coefficient greater than or equal to 7)	
C/C=C\c1ccc(O)c(OC)c1 [Material 528]		K (Log of liquid dish neat product liquid-air partition coefficient greater than or equal to 7)
C=C(C)C1CC=C(C)C(O)C1 (stereo not shown) [Material 531]	K (Log of liquid dish neat product liquid-air partition coefficient greater than or equal to 7)	
CC/C=C\CCOC(=O)C/C=C\CC [Material 534]	K (Log of liquid dish neat product liquid-air partition coefficient greater than or equal to 7)	
C/C=C(\C)C(=O)OCC/C=C\CC [Material 536]		K (Log of liquid dish neat product liquid-air partition coefficient greater than or equal to 7)
CC/C=C\CCOC(=O)c1ccccc1 [Material 541]	K (Log of liquid dish neat product liquid-air partition coefficient greater than or equal to 7)	
CC/C=C\C/C=C\CCO [Material 546]	K (Log of liquid dish neat product liquid-air partition coefficient greater than or equal to 7)	
CCC(=O)OCC=Cc1ccccc1 [Material 548]	K (Log of liquid dish neat product liquid-air partition coefficient greater than or equal to 7)	
N#CC=Cc1ccccc1 [Material 549]		K (Log of liquid dish neat product liquid-air partition coefficient greater than or equal to 7)
CC(C)C(=O)OCC=Cc1ccccc1 [Material 550]	K (Log of liquid dish neat product liquid-air partition coefficient greater than or equal to 7)	
O=COCC=Cc1ccccc1 [Material 551]	K (Log of liquid dish neat product liquid-air partition coefficient greater than or equal to 7)	
CC(=O)OCC=Cc1ccccc1 [Material 553]	K (Log of liquid dish neat product liquid-air partition coefficient greater than or equal to 7)	
O=C/C=C/c1ccccc1 [Material 554]		K (Log of liquid dish neat product liquid-air partition coefficient greater than or equal to 7)
OCC=Cc1ccccc1 [Material 555]	K (Log of liquid dish neat product liquid-air partition coefficient greater than or equal to 7)	
N#C/C=C/c1ccccc1 [Material 556]		K (Log of liquid dish neat product liquid-air partition coefficient greater than or equal to 7)
Cc1cc(O)cc(C)c1Cl [Material 557]		K (Log of liquid dish neat product liquid-air partition coefficient greater than or equal to 7)
C=CCCC(=O)/C=C/C1C(C)=CCCC1(C)C (stereo not shown) [Material 559]	K (Log of liquid dish neat product liquid-air partition coefficient greater than or equal to 7)	
